Earlier results as cited in patent US20120107430A1, “PRE-PROCEDURE MEAL REGIMEN” (priority 2009, published 2012).

Legend:
[1] = test system: colon; conditions: N=50 per arm; senna two doses 158 mg each, 8 hours apart; sodium phosphate 48 grams
[2] = test system: colon; conditions: either diet (light breakfast then clear liquids, or normal breakfast, low residue lunch, then clear liquids); 200 patients

## O=P(O)(O)O [sodium phosphate]
[1]
  patients reporting good tolerance: 28 patients
  patients reporting poor tolerance: 12 patients
[2]
  good to excellent preparation: 93-95%
